Source: patent US12466807B2, “Salt and crystal form of a FAK inhibitor” (Amplia Therapeutics Limited, priority 2019, dated 2025)
Marks after values point to notes of the source that are not given here.

Experiment: Oral exposure (pharmacokinetics) in rats
Assay type: in vivo, male Sprague Dawley rats
Settings: rat
Protocol: To compare the exposure of the compound of Formula I in male Sprague Dawley rats following oral administration of the free base and L-tartrate salt at a target dose of 20 mg/kg (as free base equivalent).
Further details of the in-life, formulation and bioanalytical procedures together with the data analysis, are described in Appendix 1.
In-Life • The exposure of Formula I was studied in overnight-fasted male Sprague Dawley rats that had access to water ad libitum throughout the pre- and post-dose sampling period, and access to food was re-instated 4 h post-dose. In-life details are provided in Table A1-1. • Samples of arterial blood and total urine were collected up to 48 h post-dose. Arterial blood was collected directly into borosilicate vials (at 4° C.) containing heparin, Complete® (a protease inhibitor cocktail) and potassium fluoride to minimise potential for ex vivo degradation of Formula I in blood/plasma samples. Once collected, blood samples were centrifuged, supernatant plasma was removed and stored frozen (−80° C.) until analysis by LC-MS.
The extraction of the test compound from plasma samples was conducted using protein precipitation with acetonitrile. Both solution and plasma standards were freshly prepared, with each set of standards comprising at least seven different analyte concentrations. Solution standards were diluted from a stock solution (1 mg/mL in DMSO) with 50% acetonitrile in water. Plasma standards were prepared by spiking blank plasma (50 μL) with solution standards (10 μL) and the internal standard, diazepam (10 μL, 5 μg/mL).
Plasma samples were similarly prepared, except that blank acetonitrile (10 μL) was added instead of solution standards. Protein precipitation was carried out by the addition of acetonitrile (120 μL), vortexing (20 s) and centrifugation (10,000 rpm) in a microcentrifuge for 3 minutes. The supernatant was subsequently separated and 3 μL injected directly onto the column for LC/MS analysis using conditions tabulated below. All plasma concentrations are expressed as the non-salt equivalent.
Standard Calculations • Plasma concentration versus time data were analysed using non-compartmental methods (PKSolver Version 2.0). Standard calculations for each pharmacokinetic parameter are listed below.
[formula] • AUCIV Area under the plasma concentration versus time profile from time zero to infinity after IV administration (reported previously: CDCO_FAK_11_031) • t1/2 Elimination half-life • λ2 Terminal elimination rate constant after IV administration • BA Oral bioavailability • AUCoral Area under the plasma concentration versus time profile from time zero to infinity after oral administration • Cmax Maximum plasma concentration observed after oral administration. • Tmax Time to achieve Cmax • Differences in pharmacokinetic parameters (t½, AUC, Cmax, Tmax and BA) between free base and L-tartrate salt were evaluated using an unpaired t-test testing for significance at α=0.05 (GraphPad Prism, version 7.01)

[1] = PO 20 mg/kg (free base equivalent), mean ± SD, n = 3, listed as L-Tartrate salt, 20 mg/kg

- Apparent t1/2 [1]: 5.8 ± 0.2 h
- BA [1]: 71.3 ± 7.5 %
- Plasma AUC0-inf [1]: 14.6 ± 1.5* h*μM
- Tmax [1]: 5.7 ± 1 h
- Cmax (PO 20 mg/kg (free base equivalent), mean ± SD, n = 3, listed as L-Tartrate salt, 20 mg/kg, read-out: Plasma Cmax): 1200 ± 300 nM
- Cmax greater than the free base (PO 20 mg/kg): approximately 30%
- Plasma AUC compared with the free base (PO 20 mg/kg): significantly higher
- % Dose in urine (unchanged Formula I) (PO 20 mg/kg, pooled urine up to 48 h, listed as L-Tartrate salt, 20 mg/kg): 0.341 ± 0.042%
- AUC greater than the free base (PO 20 mg/kg, P<0.05): ~50%
- N-demethylation metabolite of Formula I (plasma and urine after PO 20 mg/kg, not quantified): detected in plasma and urine
Compound: COc1cc(C2CCN(C)CC2)ccc1Nc1ncc(C(F)(F)F)c(CCc2ccccc2CC(N)=O)n1 [L-Tartrate]
- Adverse reactions or compound-related side effects (PO 20 mg/kg, 48 h sampling period): No adverse reactions or compound-related side effects were observed
